Measured values reported in US20140219995A1, “INHIBITORS OF BACTERIAL TYPE III SECRETION SYSTEM” (priority 2011, published 2014).
Like-named read-outs stand apart in the source and are kept apart here.

What was measured:
[1] = system: T3SS-mediated cytotoxicity of translocated effector protein ExoU in CHO cells; assay: Inhibition of P. aeruginosa ExoU-dependent CHO cell killing (translocation, LDH release); assay type: cell-based; details: Pseudomonas aeruginosa, read-out: Avg. Translocation IC50
Excerpt: Inhibition of P. aeruginosa ExoU-Dependent CHO Cell Killing.
Pseudolipasin, which acts by direct inhibition of the ExoU phospholipase, was used as control inhibitor (Lee, et al, 2007, Infect. Immun., 75:1089-98).

[2] = system: T3SS-mediated secretion of ExoS′-βLA fusion protein, P. aeruginosa strain MDM973; assay: Effector-β-lactamase (ExoS′-βLA) secretion assay; assay type: cell-based, Pseudomonas aeruginosa; details: for IC50: Pseudomonas aeruginosa, read-out: Avg. Secretion IC50
Excerpt: Effector-β-Lactamase (βLA) Secretion Assays.
P. aeruginosa. A gene encoding an ExoS'-β-lactamase (βLA) fusion protein (comprised of 234 codons of P. aeruginosa effector ExoS fused to the TEM-1 β-lactamase gene lacking secretion signal codons) was constructed by splicing by overlap extension PCR (SOE-PCR) (Choi and Schweizer, 2005, BMC Microbiol., 5:30) using primers 5-10 (Table 3, above), sequence confirmed, cloned into lacI^Q-containing GATEWAY® vector pUCP24GW (see Moir, et al., 2007, J Biomol. Screen., 12:855-64) behind the lac promoter, and introduced into P. aeruginosa by electroporation (see Choi, et al., 2006, J. Microbiol. Methods, 64:391-7). Secretion of fusion proteins was detected by measuring the hydrolysis of the chromogenic β-lactamase substrate nitrocefin in clear 96-well microplates in a modification of a previously described assay (Lee, et al., 2007, Infect. Immun., 75:1089-98). Cells of strain MDM973 (PAK/pUCP24GW-exoS:blaM) were sub-cultured in the morning from overnight growths in LBG into 0.1 ml of LBGIE with or without test compounds and grown for 150 min. Nitrocefin (100 μg/ml final) was added, and A490 measurements taken every minute for 15 min in a Victor^3V 1420 Multilabel HTS Counter (PerkinElmer). Slopes were calculated as a relative measure of the quantity of the effector-βLA fusion protein secreted and were absolutely dependent on induction with IPTG, EGTA, and the presence of a functional pscC gene in the P. aeruginosa cells. Typical signal:background ratios were 6-10.

[3] = Determination of mammalian cytotoxicity (MTS); assay type: cell-based; details: human
Method: Determination of Mammalian Cytotoxicity.
See, Marshall, et al., 1995, A critical assessment of the use of microculture tetrazolium assays to measure cell growth and function, Growth Regul., 5:69-84. Briefly, 96-well plates were seeded with HeLa cells at a density of 4×10^3 per well in VP-SFM medium without serum (Frazzati-Gallina, et al., 2001, J. Biotechnol., 92:67-72), in the presence or absence of serial dilutions of a compound dissolved in DMSO. Following incubation for 3 days at 37° C. in VP-SFM, cell viability was measured with the vital tetrazolium salt stain 3-(4,5-dimethylthiazol-2-yl)-2,5 diphenyltetrazolium bromide according to the manufacturer's instructions (Promega, Madison, Wis.). Values were determined in duplicate using dilutions of inhibitory compound from 100 μM to 0.2 μM.

[4] = Table 4, HeLa cells, 3 days, dilutions from 100 μM to 0.2 μM, read-out: Avg. CC50

CC(Oc1ccc(Cl)cc1Cl)C(=O)NCc1ccc(F)cc1 (stereo not drawn) [MBX-1642]
IC50 [1]: 15 µM | IC50 [2]: 8 µM | CC50 at 3 days [3, 4]: 41 µM

CC(Oc1ccc(Cl)cc1Cl)C(=O)NCc1ccccc1 (stereo not drawn) [MBX-1939]
IC50 [1]: 7.5 µM | melting point: 121 °C | CC50 at 3 days [3, 4]: 54 µM

COc1cccc(OC)c1CNC(=O)C(C)Oc1ccc(Cl)cc1Cl (stereo not drawn) [MBX-1950]
IC50 [1]: 5 µM | IC50 [2]: 53.3 µM | melting point: 122 °C | CC50 at 3 days [3, 4]: 22 µM

Cc1cccc(CNC(=O)C(C)Oc2ccc(Cl)cc2Cl)c1 (stereo not drawn) [MBX-1952]
IC50 [1]: 8 µM | melting point: 113 °C | CC50 at 3 days [3, 4]: 32 µM

CC(Oc1ccc(Cl)cc1Cl)C(=O)NCc1cccc(Cl)c1 (stereo not drawn) [MBX-1957]
IC50 [1]: 5.4 µM | melting point: 140 °C | CC50 at 3 days [3, 4]: 72 µM

CC(Oc1ccc(Cl)cc1Cl)C(=O)NCc1ccc(Cl)cc1 (stereo not drawn) [MBX-1958]
IC50 [1]: 9.6 µM | melting point: 115 °C | CC50 at 3 days [3, 4]: 42 µM

CC(Oc1ccc(Cl)cc1Cl)C(=O)NCc1ccc(N(C)C)cc1 (stereo not drawn) [MBX-1961]
IC50 [1]: 3.4 µM | IC50 [2]: 33 µM | melting point: 127 °C | CC50 at 3 days [3, 4]: 86 µM

CC(Oc1ccc(Cl)cc1Cl)C(=O)NCc1ccccc1F (stereo not drawn) [MBX-1962]
IC50 [1]: 8.2 µM | melting point: 121 °C | CC50 at 3 days [3, 4]: 32 µM

CC(Oc1ccc(Cl)cc1Cl)C(=O)NCc1cccc(F)c1 (stereo not drawn) [MBX-1963]
IC50 [1]: 4.9 µM | melting point: 106 °C | CC50 at 3 days [3, 4]: 59 µM

CC(Oc1ccc(Cl)cc1Cl)C(=O)NCc1ccc2c(c1)CCCO2 (stereo not drawn) [MBX-1997]
IC50 [1]: 9.2 µM | IC50 [2]: 7.3 µM | melting point: 106 °C | CC50 at 3 days [3, 4]: > 100 µM

CC(Oc1ncc(Cl)cc1Cl)C(=O)NCc1ccc2c(c1)OCO2 (stereo not drawn) [MBX-2155]
melting point: 180 °C | CC50 at 3 days [3, 4]: > 100 µM

CC(Oc1ncc(Cl)cc1Cl)C(=O)NCc1ccc(F)cc1 (stereo not drawn) [MBX-2158]
IC50 [1]: 26.4 µM | IC50 [2]: 6.8 µM | melting point: 129 °C | CC50 at 3 days [3, 4]: > 100 µM

COc1ccc(CNC(=O)C(C)Sc2ccc(Cl)cc2Cl)cc1 (stereo not drawn) [MBX-2163]
IC50 [1]: 12.2 µM | IC50 [2]: 8.3 µM | melting point: 89 °C | CC50 at 3 days [3]: > 100 µM

CC(Nc1ccc(Cl)cc1Cl)C(=O)NCc1ccc2c(c1)OCO2 (stereo not drawn) [MBX-2212]
IC50 [1]: 35.3 µM | IC50 [2]: 9.6 µM | effect of structural alteration on T3SS-mediated secretion inhibition ([2]; vs. MBX-1641): adverse effect | CC50 at 3 days [3]: 80 µM

CC(Oc1ccc(Cl)cc1Cl)C(=O)NC(C)(C)c1ccc2c(c1)OCO2 (stereo not drawn) [MBX-2220]
IC50 [1]: 15 µM | IC50 [2]: 2.9 µM | IC50 values lower (T3SS secretion inhibition) ([2]; vs. MBX-1641): 29% | melting point: 105 °C | CC50 at 3 days [3, 4]: 64 µM

CC(Oc1ccc(Cl)cc1Cl)C(=O)NC(C)c1ccc(F)cc1 (stereo not drawn) [MBX-2221]
IC50 [2]: 4.6 µM | IC50 values lower (T3SS secretion inhibition) ([2]; vs. MBX-1641): 34% | CC50 at 3 days [3, 4]: 32 µM

C[C@@H](Oc1ccc(Cl)cc1Cl)C(=O)N[C@H](C)c1ccc(F)cc1 [MBX-2572]
IC50 [1]: > 100 µM | CC50 at 3 days [3, 4]: > 100 µM

C[C@H](NC(=O)[C@@H](C)Oc1ccc(Cl)cc1Cl)c1ccc(F)cc1 [MBX-2573]
IC50 [1]: > 100 µM | CC50 at 3 days [3, 4]: > 100 µM

CC(Oc1ccc(Cl)cc1Cl)C(=O)NCCc1ccc(F)cc1 (stereo not drawn) [MBX-2588]
IC50 [1]: 68 µM | IC50 [2]: 5.5 µM | melting point: 129 °C | CC50 at 3 days [3, 4]: 25 µM

CC(Oc1ccc(Cl)cc1Cl)C(=O)NC1COc2cc(F)ccc21 (stereo not drawn) [MBX-2589]
IC50 [1]: > 100 µM | IC50 [2]: 25 µM | melting point: 134 °C | CC50 at 3 days [3, 4]: 36 µM

CC(Oc1ccc(Cl)cc1Cl)C(=O)NCc1ccc2[nH]ccc2c1 (stereo not drawn) [MBX-2590]
IC50 [2]: 1.7 µM | melting point: 91 °C | CC50 at 3 days [3]: 25 µM

CC(Oc1ccc(Cl)cc1Cl)C(=O)NCc1ccc2c(ccn2C)c1 (stereo not drawn) [MBX-2591]
IC50 [1]: > 100 µM | IC50 [2]: 4.1 µM | melting point: 146 °C | CC50 at 3 days [3, 4]: 38 µM

CC(Oc1ccc(Cl)cc1Cl)C(=O)NCc1ccc2occc2c1 (stereo not drawn) [MBX-2592]
IC50 [1]: > 100 µM | IC50 [2]: 2.5 µM | melting point: 125 °C | CC50 at 3 days [3, 4]: 44 µM

CC(Oc1ccc(Cl)cc1Cl)C(=O)NCc1ccc2[nH]cnc2c1 (stereo not drawn) [MBX-2593]
IC50 [1]: 33 µM | IC50 [2]: 7 µM | melting point: 71 °C | CC50 at 3 days [3]: > 100 µM

CC(Oc1ccc(Cl)cc1Cl)C(=O)NCc1ccc2cc[nH]c2c1 (stereo not drawn) [MBX-2594]
IC50 [1]: 5.3 µM | IC50 [2]: 1.6 µM | melting point: 120 °C | CC50 at 3 days [3, 4]: 10.4 µM

CC(Oc1ccc(Cl)cc1Cl)C(=O)NC1CCc2cc(F)ccc21 (stereo not drawn) [MBX-2595]
IC50 [1]: > 100 µM | IC50 [2]: 16 µM | melting point: 135 °C | CC50 at 3 days [3, 4]: 35 µM

Cc1c(-c2ccccc2)[nH]c2ccc(CNC(=O)C(C)Oc3ccc(Cl)cc3Cl)cc12 (stereo not drawn) [MBX-2600]
IC50 [1]: 83 µM | IC50 [2]: 9 µM | melting point: 68 °C | CC50 at 3 days [3]: 24 µM

CC(Oc1ccc(Cl)cc1Cl)C(=O)NC1CCCc2cc(F)ccc21 (stereo not drawn) [MBX-2601]
IC50 [2]: 35 µM | melting point: 82 °C | CC50 at 3 days [3]: 40 µM

CCC(NC(=O)C(C)Oc1ccc(Cl)cc1Cl)c1ccc(F)cc1 (stereo not drawn) [MBX-2608]
melting point: 95 °C | CC50 at 3 days [3, 4]: 11 µM

CC(Oc1ccc(Cl)cc1Cl)C(=O)NCCc1c[nH]c2cc(F)ccc12 (stereo not drawn) [MBX-2613]
IC50 [1]: 10 µM | IC50 [2]: 12 µM | melting point: 114 °C | CC50 at 3 days [3]: 7 µM

CC(Oc1ccc(Cl)cc1Cl)C(=O)NC(c1ccc(F)cc1)C1CC1 (stereo not drawn) [MBX-2614]
IC50 [1]: 8.4 µM | IC50 [2]: 1.5 µM | melting point: 109 °C | CC50 at 3 days [3, 4]: 12.8 µM

CC(Oc1ccc(Cl)cc1Cl)C(=O)NC(c1ccc(F)cc1)C1CCC1 (stereo not drawn) [MBX-2615]
IC50 [2]: 2.2 µM | melting point: 103 °C | CC50 at 3 days [3, 4]: 26 µM

CC(Oc1ccc(Cl)cc1Cl)C(=O)NC(C)(C)c1ccc(F)cc1 (stereo not drawn) [MBX-2616]
IC50 [2]: 8 µM | melting point: 105 °C | CC50 at 3 days [3, 4]: 16 µM

CC(Oc1ccc(Cl)cc1Cl)C(=O)NC(c1ccc(F)cc1)C(C)C (stereo not drawn) [MBX-2617]
IC50 [2]: 2.1 µM | melting point: 107 °C | CC50 at 3 days [3, 4]: 9 µM

CC(Oc1ccc(Cl)cc1Cl)C(=O)NCc1ccc(F)cn1 (stereo not drawn) [MBX-2623]
IC50 [2]: 21 µM | melting point: 78 °C | CC50 at 3 days [3, 4]: 70 µM

CC(Oc1ccc(Cl)cc1Cl)C(=O)NCc1cc2ccccc2[nH]1 (stereo not drawn) [MBX-2624]
IC50 [1]: 16 µM | CC50 at 3 days [3, 4]: 9 µM

CC(Oc1ccc(Cl)cc1Cl)C(=O)NCc1ccc2[nH]c(CCO)cc2c1 (stereo not drawn) [MBX-2626]
IC50 [1]: 9.2 µM | IC50 [2]: 5.4 µM | melting point: 157 °C | CC50 at 3 days [3]: > 100 µM

CC(Oc1ccc(Cl)cc1Cl)C(=O)NC(C#N)c1ccc(F)cc1 (stereo not drawn) [MBX-2627]
IC50 [1]: 11 µM | IC50 [2]: 5.9 µM | melting point: 112 °C | CC50 at 3 days [3, 4]: 26 µM

CCCC(NC(=O)C(C)Oc1ccc(Cl)cc1Cl)c1ccc(F)cc1 (stereo not drawn) [MBX-2628]
IC50 [2]: 4.3 µM | melting point: 79 °C | CC50 at 3 days [3, 4]: 14 µM

CCCCC(NC(=O)C(C)Oc1ccc(Cl)cc1Cl)c1ccc(F)cc1 (stereo not drawn) [MBX-2629]
IC50 [2]: 4.7 µM | melting point: 100 °C | CC50 at 3 days [3, 4]: 19 µM

CC(Oc1ccc(Cl)cc1Cl)C(=O)NC1(c2ccc(F)cc2)CC1 (stereo not drawn) [MBX-2666]
IC50 [2]: 5.3 µM | melting point: 134 °C | CC50 at 3 days [3, 4]: 100 µM
